Counter-ions that a name gives are not always drawn.
How the values were obtained:
Hela cells = test: Autophagy-inducing activities in Hela cells (Autophagy Detection Kit); assay type: cell-based
Method: The autophagy-inducing activities of the compounds of the present invention were measured in Hela cells (Korean Cell Line Bank), using the Autophagy Detection Kit (ab139484, Abcam), according to the manufacturer's instructions. Specifically, 100 μL of EBSS (Earle's Balanced Salt Solution, WELGENE (LB 002-03)) containing 10% fetal bovine serum (FBS) was added to each well of a 96-well plate. Hela cells (1×10^4 cells) were added to each well and then incubated overnight at 37° C. in a CO2 incubator so as to stabilize the cells. The medium of each well containing the stabilized cells was replaced with a medium obtained by adding 10 nM or 100 nM of the compounds prepared in Examples (test compounds) to a EBSS containing 10% FBS. As a positive control, rapamycin was dissolved in dimethyl sulfoxide and then treated at a concentration of 500 nM per well. After the treatments, the cells were incubated at 37° C. in a CO2 incubator for 4 hours or 24 hours and then washed twice with the 1× assay buffer (prepared by adding 9 mL of distilled water to the 10× assay buffer). EBSS containing 5% fetal bovine serum, 1 μL/ml of Green detection reagent and 1 μL/ml of Nuclear stain was added thereto in the amount of 100 μL per well. The cells were incubated for 1 hour at 37° C. in a CO2 incubator and then washed twice with the 1× assay buffer. The absorbance values were measured at 488 nm, using a microplate reader (Cytation 3). The tests were repeated four times.
The absorbance values, which were obtained by treating Hela cells with the test compounds (100 nM) and the positive control (rapamycin, 500 nM) and then incubating for 4 hours as described in above, are shown in Table 1 below. And also, the absorbance values, which were obtained by treating Hela cells with the test compounds (10 nM or 100 nM) and the positive control (rapamycin, 500 nM) and then incubating for 24 hours as described in above, are shown in Table 2 below.

[1] = test system: dimethylnitrosamine (DMN)-induced liver injury male SD rats; test: Liver function-improving activities by oral administration in the liver injury model (1), 3 weeks; assay type: in vivo, rat; conditions: serum, 25 mg/kg oral once a day
Source text: The compounds according to the present invention were orally administered to dimethylnitrosamine (DMN)-induced liver injury male SD rats for 3 weeks, so as to evaluate liver function-improving activities. Specifically, 7-week-old male SD rats (Orient Bio, Korea) were accommodated to the laboratory environment at room temperature for 7 days. General symptoms were observed and then only healthy animals were used for the experiment. The rats were divided into 9 groups (n=5 for each group), the normal control group, the group to which only DMN is administered, and the groups to which both the compound of the present invention (the compounds of Example 2, 5, 6, 9, 10, 20 or 21) and DMN are administered. DMN was dissolved in purified water and then administered intraperitoneally at the dose of 10 mg/kg for 3 consecutive weeks (3 times per week, for 4 weeks). Blood samples were collected on Day 3 after the completion of the first-week liver injury inducement and then the ALT (Alanine Transaminase) values and the AST (Aspartate Transaminase) values were measured so as to confirm the liver injury thereof. The compounds of the present invention were administered for 3 weeks, i.e., from Day 4 after the completion of the first-week liver injury inducement to the DMN-administering period. The seven compounds of the present invention were dissolved in purified water or corn oil and then orally administered, using an oral sonde, at the dose of 25 mg/kg once a day for 3 weeks. Blood samples were collected on Day 0 (3 days after the completion of the first-week liver injury inducement) and Day 7, 14 and 21 after the administration of the test compounds. The collected blood was injected into a vacutainer tube containing a clot activator and then allowed to stand at room temperature for about 20 minutes so as to coagulate each blood sample. After centrifugation for 10 minutes, the resulting serums were subjected to blood-biochemical tests.

[2] = test compound 10 nM, incubation for 24 hours
[3] = test compound 100 nM, incubation for 4 hours
[4] = test compound 100 nM, incubation for 24 hours
[5] = 0 week (Day 0, before administration of test compound)

| SMILES | Absorbance (at 488 nm) (Hela cells; [2]) | Absorbance (at 488 nm) (Hela cells; [3]) | Absorbance (at 488 nm) (Hela cells; [4]) | ALT values (average value) [1, 5] [U/L] | AST values (average value) [1, 5] [U/L] | ALT values (average value) ([1]; 1 week) [U/L] | AST values (average value) ([1]; 1 week) [U/L] | ALT values (average value) ([1]; 2 weeks) [U/L] | AST values (average value) ([1]; 2 weeks) [U/L] | ALT values (average value) ([1]; 3 weeks) [U/L] | AST values (average value) ([1]; 3 weeks) [U/L] | Absorbance (at 488 nm) (Hela cells; positive control 500 nM, incubation for 4 hours) | Absorbance (at 488 nm) (Hela cells; positive control 500 nM, incubation for 24 hours) |
| --- | --- | --- | --- | --- | --- | --- | --- | --- | --- | --- | --- | --- | --- |
| CCN(CC)CCOc1ccc(-c2ccc(C(=S)NCCN(C(C)C)C(C)C)s2)cc1OC.Cl.Cl [Example 8, N-(2-(diisopropylamino)ethyl)-5-(4-(2-diethylamino)ethoxy-3-methoxyphenyl)thiophene-2-thiocarboxamide hydrochloride] | 1586.3 | 1315.2 | 1612.3 | – | – | – | – | – | – | – | – | – | – |
| COc1cc(-c2ccc(C(=S)NCCN(C(C)C)C(C)C)s2)ccc1O.Cl [Example 7, N-(2-(diisopropylamino)ethyl)-5-(4-hydroxy-3-methoxyphenyl)thiophene-2-thiocarboxamide hydrochloride] | 1598.5 | 1325.5 | 1605.5 | – | – | – | – | – | – | – | – | – | – |
| COc1cc(-c2ccc(C(=S)N3CCN(C)CC3)s2)ccc1O [Example 3, N-(4-methylpiperazino)-5-(4-hydroxy-3-methoxyphenyl)thiophene-2-thiocarboxamide hydrochloride] | 1576.3 | 1193.8 | 1754.3 | – | – | – | – | – | – | – | – | – | – |
| CCN(CC)CCOc1ccc(-c2ccc(C(=O)NC(C)C)s2)cc1OC.Cl [Example 9, N-isopropyl-5-(4-(2-diethylamino)ethoxy-3-methoxyphenyl)thiophene-2-carboxamide hydrochloride] | 1594.0 | 1320.2 | 1951.7 | 67.64 | 140.64 | 103.78 | 220.58 | 111.80 | 241.06 | 117.92 | 222.50 | – | – |
| CCN(CC)CCOc1ccc(-c2ccc(C(=S)N3CCN(C)CC3)s2)cc1OC.Cl.Cl [Example 4, N-(4-methylpiperazino)-5-(4-(2-diethylamino)ethoxy-3-methoxyphenyl)thiophene-2-thiocarboxamide hydrochloride] | 1691.3 | 1580.6 | 1618.3 | – | – | – | – | – | – | – | – | – | – |
| COc1cc(-c2ccc(C(=S)NC(C)C)s2)ccc1O [Example 11, N-isopropyl-5-(4-hydroxy-3-methoxyphenyl)thiophene-2-thiocarboxamide] | 1459.7 | 1268.4 | 1731.0 | – | – | – | – | – | – | – | – | – | – |
| CO[C@H]1C[C@@H]2CC[C@@H](C)[C@@](O)(O2)C(=O)C(=O)N2CCCC[C@H]2C(=O)O[C@H]([C@H](C)C[C@@H]2CC[C@@H](O)[C@H](OC)C2)CC(=O)[C@H](C)/C=C(\C)[C@@H](O)[C@@H](OC)C(=O)[C@H](C)C[C@H](C)/C=C/C=C/C=C/1C [Rapamycin, rapamycin, reference compound] | – | – | – | – | – | – | – | – | – | – | – | 1306.2 | 1594.2 |
| COc1cc(-c2ccc(C(=O)NCCN(C(C)C)C(C)C)s2)ccc1O.Cl [Example 5, N-(2-(diisopropylamino)ethyl)-5-(4-hydroxy-3-methoxyphenyl)thiophene-2-carboxamide hydrochloride] | 1557.3 | 1348.0 | 1618.3 | 68.90 | 137.66 | 96.60 | 187.26 | 108.80 | 219.66 | 111.00 | 234.22 | – | – |
| CCN(CC)CCOc1ccc(-c2ccc(C(=S)NC(C)C)s2)cc1OC.Cl [Example 10, N-isopropyl-5-(4-(2-diethylamino)ethoxy-3-methoxyphenyl)thiophene-2-thiocarboxamide hydrochloride] | 1729.3 | 1390.0 | 1882.3 | 67.46 | 145.00 | 85.06 | 202.52 | 102.94 | 218.60 | 102.94 | 199.34 | – | – |
| CCN(CC)CCOc1ccc(-c2ccc(C(=O)N3CCN(C)CC3)s2)cc1OC.Cl.Cl [Example 2, N-(4-methylpiperazino)-5-(4-(2-diethylamino)ethoxy-3-methoxyphenyl)thiophene-2-carboxamide hydrochloride] | 1829.3 | 1460.5 | 1866.3 | 67.24 | 143.32 | 101.70 | 210.86 | 113.22 | 223.88 | 126.10 | 250.76 | – | – |
| COc1cc(-c2ccc(C(=O)N3CCN(C)CC3)s2)ccc1O [Example 1, hydrochloride] | 1617.3 | 1321.2 | 1660.3 | – | – | – | – | – | – | – | – | – | – |
| COc1cc(-c2ccc(C(=O)NCC3(N(C)C)CCOCC3)s2)ccc1O.Cl [Example 20, N-((4-(dimethylamino)tetrahydro-2H-pyran-4-yl)methyl)-5-(4-hydroxy-3-methoxyphenyl)thiophene-2-carboxamide hydrochloride] | – | – | – | 69.80 | 136.28 | 87.26 | 194.88 | 104.34 | 209.56 | 116.14 | 229.74 | – | – |
| CCN(CC)CCOc1ccc(-c2ccc(C(=O)NCCN(C(C)C)C(C)C)s2)cc1OC.Cl.Cl [Example 6, N-(2-(diisopropylamino)ethyl)-5-(4-(2-diethylamino)ethoxy-3-methoxyphenyl)thiophene-2-carboxamide hydrochloride] | 1784.6 | 1670.5 | 1893.7 | 68.02 | 141.78 | 80.46 | 220.86 | 98.94 | 215.42 | 109.80 | 249.56 | – | – |
